Assay results reported in US10421759B2, “Fused bicyclic compounds for the treatment of disease” (AKARNA THERAPEUTICS, LTD., priority 2015, dated 2019).

How the values were obtained:
Mouse Cyp7A1 = assay: Gene Expression Assay (liver qPCR after p.o. dosing); assay type: in vivo; settings: C57BL/6 mice, 10 mg/kg p.o., liver collected 4 hours post dosing
Experimental: (§1) C57BL/6 mice (3 per group) were dosed p.o. with 10 mg/kg of compound 20. Livers were collected at 4 hours post dosing and transferred into RNALater solution immediately. Tissues were stored at 4° C. until RNA isolation. RNA was isolated, quantified and amplified; qPCR was performed using SuperScript® III Platinum® SYBR®Green One-Step qRT-PCR Kit (Cat no. 11736-051). Primers used are as listed: Mouse Cyp7A1: For: (SEQ. ID NO: 1) [NT] Rev: (SEQ. ID NO: 2) [NT]; Mouse SHP: For: (SEQ. ID NO: 3) [NT] Rev: (SEQ. ID NO: 4) [NT]; Mouse GAPDH: For: (SEQ. ID NO: 5) [NT] Rev: (SEQ. ID NO: 6) [NT]

FXR = target: T1, FXR (Homo sapiens, UniProt Q96RI1); assay: FXR Agonist Tranactivation Assay (luciferase reporter, CV-1 cells); assay type: cell-based; settings: at 10 μM; CV-1 cells cotransfected with pCMV6-NR1H4 (FXR), pCMV6-RXRA and pEcREX7-TK-Luc; positive control 10 uM XL-335; 20 hours
T1 construct: expressed in transfected cells; host or cells: CV-1 cells, transient cotransfection
T1 sequence (Q96RI1 1-486): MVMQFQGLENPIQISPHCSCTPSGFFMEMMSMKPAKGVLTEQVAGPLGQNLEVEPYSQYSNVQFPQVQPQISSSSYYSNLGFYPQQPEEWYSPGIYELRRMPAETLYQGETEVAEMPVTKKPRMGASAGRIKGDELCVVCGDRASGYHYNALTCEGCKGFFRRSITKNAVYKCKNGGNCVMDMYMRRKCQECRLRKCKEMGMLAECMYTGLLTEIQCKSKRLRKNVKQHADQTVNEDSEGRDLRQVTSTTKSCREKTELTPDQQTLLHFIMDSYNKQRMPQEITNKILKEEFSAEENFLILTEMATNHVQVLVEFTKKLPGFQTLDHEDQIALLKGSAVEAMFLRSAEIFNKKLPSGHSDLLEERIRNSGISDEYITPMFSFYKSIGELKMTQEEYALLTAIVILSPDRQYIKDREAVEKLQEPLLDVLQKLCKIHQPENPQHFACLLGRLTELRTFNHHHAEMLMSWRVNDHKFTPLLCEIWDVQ
T1 sequence (P19793 1-462 partner): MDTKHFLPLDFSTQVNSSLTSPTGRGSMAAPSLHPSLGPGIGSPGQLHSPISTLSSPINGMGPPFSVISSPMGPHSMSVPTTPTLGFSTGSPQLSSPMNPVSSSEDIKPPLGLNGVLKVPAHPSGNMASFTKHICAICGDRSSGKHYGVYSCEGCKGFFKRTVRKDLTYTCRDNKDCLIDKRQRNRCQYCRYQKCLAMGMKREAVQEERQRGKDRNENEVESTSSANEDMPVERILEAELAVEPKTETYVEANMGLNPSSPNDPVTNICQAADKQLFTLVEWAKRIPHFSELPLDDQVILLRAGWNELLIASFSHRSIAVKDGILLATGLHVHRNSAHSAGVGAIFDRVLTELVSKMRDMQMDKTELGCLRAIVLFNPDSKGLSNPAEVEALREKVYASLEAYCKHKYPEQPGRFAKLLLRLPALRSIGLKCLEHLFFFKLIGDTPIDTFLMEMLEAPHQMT
Experimental: CV-1 cells were transiently cotransfected with pCMV6-NR1H4 (FXR), pCMV6-RXRA and reporter plasmid pEcREX7-TK-Luc. Five hours after transfection, cells were trypsinized and dispensed into 96-well plates at a concentration of 10,000 cells per well.
Compound Dilution and Addition: Starting from 3.33 mM of compound in DMSO solution a 10-point 3-fold serial dilution was made by diluting 5 μl of compound into 10 μl of DMSO. The serially diluted compound was then diluted 1:33 into DMEM. This medium was then diluted ten-fold into the culture medium with the cells (10 μl/well). All concentration points are assayed in duplicate. Plates were incubated at 37° C. for 20 hours.
Luciferase activity Readout: After the incubation 20 μl of culture medium were removed from each well and mixed with 50 μl of assay solution (Pierce™ Gaussia Luciferase Flash Assay Kit). The luminescence was measured immediately after addition of the Luc substrate with an Envision microplate reader.
Data Reduction and Analysis: The raw data was uploaded to CDD and dose-response curves were generated using the Levenberg-Marquardt algorithm integrated into CDD. As a positive control 10 uM XL-335 and as a negative control DMSO is included on each plate and used to normalize the data with the CDD built-in normalization function.

Mouse SHP = assay: Gene Expression Assay (liver qPCR after p.o. dosing); assay type: in vivo; settings: C57BL/6 mice, 10 mg/kg p.o., liver collected 4 hours post dosing
Experimental: as §1, with “1) […]” for “1) [NT]”, “2) AGTGGTGGCAAAATTCCCA;” for “2) [NT];”, “3) […]” for “3) [NT]”, “4) AGCCTCCTGTTGCAGGTGT;” for “4) [NT];”, “5) […]” for “5) [NT]”, “6) […].” for “6) [NT]”

| Avg. % mRNA induction, CYP7a (Mouse Cyp7A1) [%] | activation compared to the positive control (FXR) | SMILES | Avg. % mRNA induction, SHP (Mouse SHP) [%] |
| --- | --- | --- | --- |
| 57 | 86% | CCOC(=O)C1=CN(C(=O)N2CC[N+](C)(C)CC2)CC(C)(C)c2c1[nH]c1ccccc21.[I-] [compound 20, 4-(5-(ethoxycarbonyl)-1,1-dimethyl-1,2,3,6-tetrahydroazepino[4,5-b]indole-3-carbonyl)-1,1-dimethylpiperazin-1-ium iodide] | 266 |
| – | inactive | CC(C)OC(=O)C1=CN(C(=O)c2ccc(OCC[N+]3(C)CCOCC3)cc2)CC(C)(C)c2c(C(F)(F)F)n[nH]c21 [compound 13] | – |
